Where no end group is shown, it is not given here.
Test system: somatostatin receptor
Test: Rat pituitary assay for somatostatin receptor antagonists (cAMP content of GH4C1 cells)
Type: cell-based
Conditions: GH4C1 pituitary cell line; 100 nM VIP, 10 nM somatostatin 14

Row | Compound | cAMP content of the GH4C1 cells
1 | vasoactive intestinal peptide (HSDAVFTDNYTRLRKQMAVKKYLNSILN; ends and bridges not checked; UniProt P01282 125-152, looked up) [VIP, endogenous peptide that stimulates GH secretion] | increased cAMP content
2 | C[C@H](N)C(=O)NCC(=O)N[C@H]1CSSC[C@@H](C(=O)O)NC(=O)[C@H](CO)NC(=O)[C@H]([C@@H](C)O)NC(=O)[C@H](Cc2ccccc2)NC(=O)[C@H]([C@@H](C)O)NC(=O)[C@H](CCCCN)NC(=O)[C@H](Cc2c[nH]c3ccccc23)NC(=O)[C@H](Cc2ccccc2)NC(=O)[C@H](Cc2ccccc2)NC(=O)[C@H](CC(N)=O)NC(=O)[C@H](CCCCN)NC1=O [somatostatin, somatostatin 14] | partial inhibition

— US6720330B2, “Somatostatin antagonists and agonists that act at the SST subtype 2 receptor” (Pfizer Inc., priority 2000, dated 2004)
